Data as given in patent US8962263B2, “Methods and compositions for detecting the activation state of multiple proteins in single cells” (The Board of Trustees of the Leland Stanford Junior …, priority 2001, dated 2015).

Key:
[1] = test system: Syk; details: cited from earlier work
[2] = test system: Raf and p44/42 MAPK; test: phospho-raf and phospho-p44/42 immunoblot kinase inhibitor screen after ICAM-2 stimulus; format: cell-based, human; details: compound 10 μM 30 min, then ICAM-2 10 μg/ml 30 min
Method: Serum starved cells were treated with 10, μM of indicated compound 30, minutes prior to being ICAM-2, crosslinked for 30, minutes (10, μg/ml) and assessed for phosphorylated Raf and p44/42, MAPK using phospho specific antibodies in standard immunoblot procedures. Control IgG dissolved in 0.1% DMSO served as negative control. Blots are representative of triplicate experiments. […] Co-immunoprecipitation experiments were performed immunoprecipitating αL and β2, integrin and immunoblotting for the presence of SYK and PYK as a function of a stimulus for 30, minutes as indicated (antibodies used at 10, μg/ml, compounds used at 1, μM and control 19, served as negative control).
A) Phospho-raf and phospho-p44/42, immunoblot inhibition profile by tyrosine kinase inhibitors. […] Cell lysates were immunoblotted for phospho-raf and phospho-p44/42. […] Phospho-specificity was determined by phospho-PykpY402, and phospho-syk (Tyr525/526) antibodies. […] Cells were treated and processed as above. Phospho-specific PKCα/βII, (Thr638) and the following antibodies were used; Pyk2, and Syk were first immunoprecipated, probed with anti-phosphotyrosine antibody (PY20), stripped and subsequently probed with indicated non-phospho specific antibody. Immunoblots are representative of triplicate experiments. […]

[3] = test system: Pyk2; test: sICAM-2 induced Pyk2 phosphorylation (phospho-tyrosine based ELISA, chemical genetic approach); format: cell-based; details: for sICAM-2 induced Pyk2 phosphorylation: phospho-tyrosine based ELISA
Source text: (§1) E) depicts that LFA-1, induced phosphorylation of Pyk2, and Syk is dependent on PKC. We screened for the inhibition of sICAM-2, induced Pyk2, and Syk phosphorylation by chemical inhibitors to tyrosine kinases using a phospho-tyrosine based ELISA. Pyk2, phosphorylation was abrogated in the presence of PKC inhibitors bisindolymaleimide II (BIM II) and staurosporine (STP), in addition to tyrphostin A9, a specific Pyk2, inhibitor. a Pyk2, phosphorylation was also affected by inhibitors of phospholipase Cg (neomycin), inhibitors of Syk (piceatannol), and PKC inhibitor BIM I. Syk phosphorylation was completely abolished by inhibition of Pyk2, PLCg1, and strongly affected by PKC inhibitors. Thus, both Pyk2, and Syk phosphorylations were dependent on PKC activity, while Syk phosphorylation was additionally dependent on PLCg1, and Pyk2, activity. It was not possible to assess specific PKC isozymes by this method.
(§2) A chemical genetic approach was undertaken to determine the hierarchy of PKC, Pyk2, PLCg1, and Syk activities in response to sICAM-2, stimulus by verifying phosphorylation status of each kinase in the presence of respective chemical inhibitors. Inhibition of PKC with BIM II abrogated phosphorylation of Pyk2, PLCg1, and Syk. Inhibition of PLCg1, by neomycin abrogated phosphorylation of Syk, with no inhibition observed for Pyk2. […] Thus, the upstream signaling events from LFA-1, to Raf-1, appear to involve PKC/Pyk2/PLCg1/Syk. […] We are currently pursuing these complexes in a separate study.

[4] = test system: ezrin; test: phosphotyrosine-protein based elisa for ezrin tyrosine phosphorylation upon ICAM-2 ligation; format: cell-based, human; details: Jurkat cells
Method: A) Expression levels of ICAM-2, vary across cell lines of different origins. Quantitative flow cytometry analysis was performed to assess the number of ICAM-2 surface molecules across transformed and untransformed fibroblasts, lymphocytes of T-cell and different B-cell differentiation states and myeloid lineages (see Material and Methods for elaboration). The number of surface molecules/cell is expressed as the mean (bar)+/−SD of triplicate experiments. B) Crosslinking of endogenous ICAM-2, induces ezrin tyrosine phosphorylation and enhanced ICAM-2, interaction. Jurkat cells were crosslinked for ICAM-2 using monoclonal antibody for the indicated times and subjected to immunoprecipitation/immunoblotting as indicated. C) Inhibition of ezrin phosphotyrosine by chemical inhibitors of src and Rho-dependent kinases. D) Ezrin phosphorylation and enhanced interaction with the p85, subunit of PI3K as a function of ICAM-2. Determined as described above. E) PDK-1, activity as a function of ICAM-2, ligation, as described above). F) PI3K and AKT localize to the membrane as a function of ICAM-2, ligation. Membrane/cytosolic fractionation was performed on ICAM-2, ligated Jurkat cells as a function of time and subjected to immunoblotting for PI3K and AKT.
In order to identify upstream kineses capable of tyrosine phosphorylating ezrin as a function of ICAM-2 ligation, we developed a phosphotyrosine-protein based elisa to screen for the inhibition of ezrin tyrosine phosphorylation in vivo by various known inhibitors of protein kineses (Perez and Nolan, manuscript in preparation). […] Given the design of the screen to detect tyrosine residue phosphorylation, we speculate that activation of Rho-dependent processes may be a prerequisite for ezrin to be tyrosine phosphorylated by src (elaborated below).

[5] = test system: NIH3T3; test: staurosporine induced apoptosis in ICAM-2 transduced NIH3T3 (annexin-V binding, BrdU TUNEL); format: cell-based, murine; details: for effect on ICAM-2 anti-apoptotic effect, other kinase inhibitors: cell type not stated, data not shown
Method: A) Pharmacological inhibitors of PI3K abrogate ICAM-2's anti-apoptotic. ICAM-2, or vector transduced BaF3, cells were treated with staurosporine (1, μM) with (unfilled) or without (filled) the addition of 100, nM wortmannin for 24, hours (left bar graph). Apoptosis was determined by nuclear staining and fluorescence microscopy (left bar graph) and by annexin-V binding assay (right bar graph). The proportion of apoptotic cells in each culture without staurosporine was 8%+/−2. The percentage of apoptotic cells is expressed as the mean (bar)+SD of triplicate cultures. ICAM-2, 1CAM2-AC, or vector transduced NIH3T3, were treated with staurosporine ([…]) in the presence or absence of 10, μM LY294002, for 24, hours (right bar graph). DMSO vehicle served as negative control. The percentage of apoptotic cells is expressed as the mean (bar)+/−SD of triplicate cultures. B) Confocal images of PI3K and AKT localization in ICAM-2, (top) or vector control cells (bottom). C) Confocal images of ezrin and the p85, subunit of PI3K (green) localization in ICAM-2, (top) or vector control cells (bottom).
A) The anti-apoptotic effect of ICAM-2, is both wortmannin and LY294002, sensitive. ICAM-2, or vector transduced BaF3, cells were treated with staurosporine (1, μM) with (unfilled) or without (filled) the addition of 100, nM wortmannin for 24 hours. Apoptosis was determined by nuclear staining and fluorescence microscopy (left bar graph) and by annexin-V binding assay (right bar graph). The proportion of apoptotic cells in each culture without staurosporine was 8%±2. The percentage of apoptotic cells is expressed as the mean (bar)±SD of triplicate cultures. ICAM-2, ICAM2-ΔC, or vector transduced NIH3T3, were treated with staurosporine (1, μM) in the presence or absence of 10, μM LY294002, for 24, hours. DMSO vehicle served as negative control. The percentage of apoptotic cells is expressed as the mean (bar)±SD of triplicate cultures. B) ICAM-2, expressing NIH3T3, cells are sensitive to apoptosis in the presence of PI3K inhibitor LY294002. BrdU TUNEL assay was performed in staurosporine (1, μM) or LY294002, (10, μM) treated ICAM-2, ICAM2-ΔC, and control vector transduced NIH3T3, cells. The percentage of apoptotic cells is expressed as the mean (bar)±SD of triplicate cultures.
Apoptosis was determined either by counting pyknotic nuclei, annexin-V binding by flow cytometry, or TUNEL BrdU staining by flow cytometry as indicated. Apoptosis was induced either by staurosporine (1 μm), treatment with anti-mouse Fas (5 μq/ml Santa Cruz Biotechnology (SCB), […] Fas (5 μg/ml Jo2 Biomed) or anti-human Fas (10 ng/ml CH11 Kamiya Biomedical) as indicated in appropriate experiment, IL-3 withdrawal-(24 hrs) or as indicated. For pyknolic nuclei count, NIH3T3 cells were grown on glass coverslips and assayed for apoptosis. Suspension cells were analyzed by nuclear staining with 25 μM acridine orange/25 μm ethidium bromide or 5 μg/ml Hoechst 33342 (Molecular Probes, Eugene, Oreg.). Apoptosis was identified by the presence of characteristic pyknotic nuclei as described (Jacobson and Raff, 1995). At least 5 individual fields were photographed and counted using a Zeiss axioscope fluorescence microscope. For the survival assay 10^6 NIH3T3 cells were plated in 10 cm dishes and incubated overnight at 37° C. The cells were treated with 1 μM staurosporine for 24 hours. The cells were washed and cultured for 24 hours in complete medium. The cells were trypsinized and viable cells counted following trypan blue staining. Untreated cells were counted at the time of treatment. % survival represents (number of viable cells post-treatment)/(number of viable cells pretreatment). FACS based annexin-V-FITC/PI staining was done as described (PharMingen). TUNEL assay was performed as described by manufacturer of Apoptosis BrdU kit (Promega). […]

[6] = test system: Syk; test: sICAM-2 induced Syk phosphorylation (phospho-tyrosine based ELISA, chemical genetic approach); format: cell-based; details: sICAM-2 stimulus
Source text: as §1
A chemical genetic approach was undertaken to determine the hierarchy of PKC, Pyk2, PLCg1, and Syk activities in response to sICAM-2, stimulus by verifying phosphorylation status of each kinase in the presence of respective chemical inhibitors. Inhibition of PKC with BIM II abrogated phosphorylation of Pyk2, PLCg1, and Syk. Inhibition of PLCg1, by neomycin abrogated phosphorylation of Syk, with no inhibition observed for Pyk2. […]

[7] = test system: PLCg1; test: sICAM-2 induced PLCg1 phosphorylation (chemical genetic approach); format: cell-based; details: sICAM-2 stimulus
Source text: as §2

[8] = test system: NK leukemic cell line YT; details: cited from earlier work
[9] = test system: CD56+CD8+ cells; test: flow cytometric conjugate formation assay of CD56+CD8+ cells and HL60 cells; format: cell-based, human; details: chemicals 10 μM 30 min prior to ICAM-2 10 μg/ml 30 min
Method: A) Conjugate formation of CFSE labeled HL60, cells and CD56^+, CD8^+, cells. Conjugate flow cytometric based assay was performed on PBMC treated with indicated chemicals (10, μM, 30, min) prior to treatment with ICAM-2, (10, μg/ml, 30, min). CFSE labeled HL60, cells were incubated at 25:1, E:T ratio for 5, min, and fixed with 1% paraformaldehyde. Cells were then immunolabeled with CD8 and CD56, antibodies, gated for CD8^+, CD56^+, cell populations and percent HL60, fluorescence was made relative to total HL60, cells. B) IL-2, activated PBMC were either treated with ICAM-2, (10 μg/ml, 30, min) or mock-treated (IgG) and stained for active-LFA-1, (mAb24-Alexa633), phospho-p44/42-Ax488, CD8-CY5PE, and CD56-PE.
Target cell lysis was measured by flow cytoemtric based detection of CFSE labeled HL60 cells. HL60 cells were labeled with 1 μg of CFSE (30 min, 37° C.). […] Percent specific lysis was calculated by the following equation: % specific lysis=100-100×(experimental HL60 count/total control HL60 count). HL60 counts were detectable by the CFSE fluorescence. Percent perforin was calculated by the following equation: % perforin=100×[(experimental perforin MFI−isotype mAb MFI)/(total perforin MFI−isotype mAb MFI)]. […] Cell conjugates were determined by flow cytometry as described (Morgan et al., 2001). […]

[10] = target: T1, LFA-1 (Mus musculus, UniProt P24063); details: oral; cited from earlier work
T1 construct: host or cells: mouse, in vivo
T1 sequence (P24063 24-1162): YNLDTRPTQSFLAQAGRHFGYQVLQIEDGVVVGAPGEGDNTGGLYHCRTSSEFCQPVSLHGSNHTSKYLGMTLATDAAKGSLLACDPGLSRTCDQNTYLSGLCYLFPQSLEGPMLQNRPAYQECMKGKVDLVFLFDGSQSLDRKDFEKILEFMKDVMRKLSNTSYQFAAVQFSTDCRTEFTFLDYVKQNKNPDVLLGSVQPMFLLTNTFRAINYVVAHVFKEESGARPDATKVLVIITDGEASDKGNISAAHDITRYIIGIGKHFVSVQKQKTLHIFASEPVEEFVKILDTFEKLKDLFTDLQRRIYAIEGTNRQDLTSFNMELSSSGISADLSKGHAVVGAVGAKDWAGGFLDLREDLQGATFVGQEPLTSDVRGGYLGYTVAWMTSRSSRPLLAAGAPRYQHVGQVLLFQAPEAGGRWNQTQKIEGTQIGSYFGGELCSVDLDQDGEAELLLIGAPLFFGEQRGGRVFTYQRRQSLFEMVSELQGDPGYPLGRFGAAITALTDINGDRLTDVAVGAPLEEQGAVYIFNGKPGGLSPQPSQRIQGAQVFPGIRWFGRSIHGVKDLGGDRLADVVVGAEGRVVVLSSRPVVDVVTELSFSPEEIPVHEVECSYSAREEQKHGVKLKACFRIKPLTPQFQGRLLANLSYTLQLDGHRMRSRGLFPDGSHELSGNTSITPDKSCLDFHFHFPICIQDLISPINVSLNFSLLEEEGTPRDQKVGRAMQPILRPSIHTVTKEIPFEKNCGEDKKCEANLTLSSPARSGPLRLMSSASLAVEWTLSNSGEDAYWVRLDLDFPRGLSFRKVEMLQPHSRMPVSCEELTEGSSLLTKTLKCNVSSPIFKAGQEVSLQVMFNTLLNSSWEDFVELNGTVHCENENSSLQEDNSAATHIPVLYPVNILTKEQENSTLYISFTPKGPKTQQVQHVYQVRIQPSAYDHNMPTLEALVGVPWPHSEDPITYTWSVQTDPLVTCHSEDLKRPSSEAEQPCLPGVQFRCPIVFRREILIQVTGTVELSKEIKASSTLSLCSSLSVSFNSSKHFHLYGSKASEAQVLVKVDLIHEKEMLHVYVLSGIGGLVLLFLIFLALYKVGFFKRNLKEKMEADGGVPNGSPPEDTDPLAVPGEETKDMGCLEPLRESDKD
T1 sequence (P11835 24-771 partner): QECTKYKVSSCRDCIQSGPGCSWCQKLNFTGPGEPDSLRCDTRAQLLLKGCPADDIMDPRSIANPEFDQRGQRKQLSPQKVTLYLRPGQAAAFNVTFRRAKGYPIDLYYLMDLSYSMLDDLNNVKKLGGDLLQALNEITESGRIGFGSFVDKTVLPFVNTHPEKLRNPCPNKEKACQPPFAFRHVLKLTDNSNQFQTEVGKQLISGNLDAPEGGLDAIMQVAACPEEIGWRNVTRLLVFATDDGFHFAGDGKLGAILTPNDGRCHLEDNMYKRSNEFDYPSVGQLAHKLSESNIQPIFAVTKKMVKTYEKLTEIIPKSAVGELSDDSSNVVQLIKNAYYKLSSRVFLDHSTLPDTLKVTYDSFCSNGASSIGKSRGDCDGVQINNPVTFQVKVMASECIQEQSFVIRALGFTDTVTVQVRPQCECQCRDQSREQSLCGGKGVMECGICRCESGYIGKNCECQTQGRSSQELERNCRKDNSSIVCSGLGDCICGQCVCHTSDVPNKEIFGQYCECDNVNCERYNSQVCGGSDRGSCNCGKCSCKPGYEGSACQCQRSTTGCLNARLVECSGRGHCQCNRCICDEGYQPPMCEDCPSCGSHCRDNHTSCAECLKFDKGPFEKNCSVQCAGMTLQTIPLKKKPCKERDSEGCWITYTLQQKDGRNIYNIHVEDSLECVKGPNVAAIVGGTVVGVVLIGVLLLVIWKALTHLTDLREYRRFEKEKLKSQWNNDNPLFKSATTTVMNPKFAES

## Oc1cc(O)cc(/C=C/c2ccc(O)c(O)c2)c1 [piceatannol]
[1]
  natural cytotoxicity: inhibits natural cytotoxicity

## CC(C)(C)c1cc(C=C(C#N)C#N)cc(C(C)(C)C)c1O [tyrphostin A9]
[2]
  effect on ICAM-2 induced activation of Raf and p44/42 MAPK: abrogated
[3]
  sICAM-2 induced Pyk2 phosphorylation: abrogated

## CN1CCCC1CCn1cc(C2=C(c3c[nH]c4ccccc34)C(=O)NC2=O)c2ccccc21 (centres unmarked) [bisindolymaleimide II]
[3]; chemical genetic approach, sICAM-2 stimulus
  phosphorylation of Pyk2: abrogated
[3]
  sICAM-2 induced Pyk2 phosphorylation: abrogated
[4]
  tyrosine phosphorylation of ezrin: minor affects
[5]; PKC isozyme inhibitors, system not specified
  ICAM-2 induced survival signal: did not abrogate
[5]
  effect on ICAM-2 anti-apoptotic effect, other kinase inhibitors: not abrogated
[6]
  phosphorylation of Syk: abrogated
[7]
  phosphorylation of PLCg1: abrogated

## COc1cccc(-c2cc(=O)c3ccccc3o2)c1N [PD98059]
[8]
  perforin redistribution: inhibits perforin redistribution to the site of effector-target cell contact
[9]
  effector-target (E:T) conjugate formation: did not
[5]
  effect on ICAM-2 anti-apoptotic effect, other kinase inhibitors: not abrogated

## CC[C@H](C)C(=O)O[C@H]1C[C@@H](C)C=C2C=C[C@H](C)[C@H](CC[C@H]3C[C@@H](O)CC(=O)N3Cc3ccc4c(CO)c(OC)ccc4c3)[C@H]21 [LFA703]
[10]
  inflammatory response: suppressed the inflammatory response
